# How the values were obtained:
# [1] = tested on: Enterohemorrhagic Escherichia coli O157; test: Permeability of pathogenic microbes when treatment sheets were laid on vomit; format: cell-based; conditions: 1000 ppm available chlorine
# Source text: (§1) 1) Chlorous acid aqueous solution formulation (see Example 1: Table 11) Treatment sheet (material: 100% cotton): (about 27×40 cm) *Impregnated at a ratio of weight of treatment sheet (g): amount of liquid (ml)=1:3 2) Imitation vomit (hereinafter, referred to as vomit) Miso solution: adjusted to pH 2 with hydrochloric acid 3) Test Microbes that were used E. coli: Escherichia coli IF03927 Staphylococcus aureus: Staphylococcus aureus IF0 12732 Thermoduric Microbes (Bacillus cereus): Bacillus cereus NBRC15305 Microbes of the genus Salmonella: Salmonella Enteritidis IF03313 Enterohemorrhagic Escherichia coli 0157: Escherichia coli 0157 Enterohemorrhagic Escherichia coli 0111: Escherichia coli 0111 Enterohemorrhagic Escherichia coli 026: Escherichia coli O26
# (§2) Permeability of pathogenic microbes into a treatment sheet when treating vomit was examined to compare effects of preventing secondary contamination. (1) Imitation vomit is spread in an area about the size of an A4 sheet. (2) 30 agent solution-containing treatment sheets were laid thereon and left standing for 10 minutes. (3) Treatment sheets were removed one at a time from the top. After diluting with saline, the sample was spread in a petri dish and cultured.
# [2] = tested on: Enterohemorrhagic Escherichia coli O26; test: as above; format: cell-based; conditions: 1000 ppm available chlorine
# Source text: as §1, §2
# [3] = tested on: Enterohemorrhagic Escherichia coli O111; test: as above; format: cell-based; conditions: 1000 ppm available chlorine
# Source text: as §1, §2
# [4] = Deodorizing effect (chemical deodorization, gas detector tube); conditions: 400 ppm, spray 20 cc
# Source text: In order to evaluate tests on deodorizing effects, the present Example examined deodorizing effects by using standards regarding air freshening and deodorization ([II]-2 Method of Testing Deodorizing Efficacy (Chemical Deodorization)) set forth by the Air Fresheners and Deodorizers Conference (http://www.houkou.gr.jp/) as the efficacy testing method, which is adopted by Japan Food Research Laboratories.
# Ammonium odor: Ammonium Standard Solution II (Wako Pure Chemical Industries, for testing malodorous substances) Amine odor: methyl mercaptan standard solution (Wako Pure Chemical Industries, for testing malodorous substances) Sulfur odor: hydrogen sulfide (self-made, used hydrogen sulfide that was generated by adding sulfuric acid to zinc sulfide)
# Gas detector tube made by GASTEC Corporation Ammonium odor: Detector tube ammonium 3 L made by GASTEC Corporation Amino odor: Detector tube methyl mercaptan 71 made by GASTEC Corporation Sulfur odor: Detector tube hydrogen sulfide 4 LL made by GASTEC Corporation
# Tests were conducted in compliance with ([II]-2 Method of Testing Deodorizing Efficacy (Chemical Deodorization)) set forth by the Air Fresheners and Deodorizers Conference.
# The tests were carried out by static culture method, using a commercially-available airbag with a spigot having a volume of about 10 L as test containers. The volume of airbags was appropriately changed in accordance with the size of the product.
# The bags were filled with odorless air. Malodor concentrations were measured over time at room temperature (about 20° C.). (3 points or higher, detection tube method (FIG. 16), measured by an instrument analysis method or olfactory measurement method. When decrease in the blank was observed, the decrease was suitably corrected. When measuring by olfactory measuring method, the airbag spigot was opened for direct sniffing, or gas was transferred to an odor bag while wearing a mask to perform olfactory measurement in an autonomic respiration form. Measured air was not returned to the source).
# For ammonium odor, the residual concentrations were detected and recorded for control (no specimen), 20 ml (cc) of distilled water, sodium hypochlorite (expressed as Na hypochlorite, 400 ppm), and chlorous acid aqueous solution (expressed as CAAS, 400 ppm) prior to spraying and 0 hour, 3 hours, 6 hours, 9 hours, and 24 hours after spraying.
# It is known that an odorous substance adsorbs to an airbag and naturally decreases when the odorous substance is in the airbag. In this regard, the amount of loss due to such a natural decrease was measured to normalize the observed values in a control segment.
# For the values, the values of the raw data were recorded. The concentration prior to spraying was adjusted and the controls were normalized to be 100. The results are shown in the following Table (In the Table, Cont indicates controls and h indicates time).
smiles,measurement,setting,value
"OCl [Sodium Hypochlorite, sodium hypochlorite]","Microbe count, 1 sheet laid on imitation vomit",[1]; Day 0 at 25° C.,<10
same,"Microbe count, 2 sheets laid on imitation vomit",[1]; Day 0 at 25° C.,<10
same,"Microbe count, 3 sheets laid on imitation vomit",[1]; Day 0 at 25° C.,<10
same,"Microbe count, 4 sheets laid on imitation vomit",[1]; Day 0 at 25° C.,<10
same,"Microbe count, 5 sheets laid on imitation vomit",[1]; Day 0 at 25° C.,<10
same,"Microbe count, 6 sheets laid on imitation vomit",[1]; Day 0 at 25° C.,<10
same,"Microbe count, 8 sheets laid on imitation vomit",[1]; Day 0 at 25° C.,<10
same,"Microbe count, 10 sheets laid on imitation vomit",[1]; Day 0 at 25° C.,<10
same,"Microbe count, 20 sheets laid on imitation vomit",[1]; Day 0 at 25° C.,<10
same,"Microbe count, 30 sheets laid on imitation vomit",[1]; Day 0 at 25° C.,<10
same,"Microbe count, 1 sheet laid on imitation vomit",[1]; Day 7 at 25° C.,>10^6
same,"Microbe count, 2 sheets laid on imitation vomit",[1]; Day 7 at 25° C.,>10^6
same,"Microbe count, 3 sheets laid on imitation vomit",[1]; Day 7 at 25° C.,>10^6
same,"Microbe count, 4 sheets laid on imitation vomit",[1]; Day 7 at 25° C.,>10^6
same,"Microbe count, 5 sheets laid on imitation vomit",[1]; Day 7 at 25° C.,>10^6
same,"Microbe count, 6 sheets laid on imitation vomit",[1]; Day 7 at 25° C.,>10^6
same,"Microbe count, 8 sheets laid on imitation vomit",[1]; Day 7 at 25° C.,1.1 × 10^4
same,"Microbe count, 10 sheets laid on imitation vomit",[1]; Day 7 at 25° C.,7.1 × 10^2
same,"Microbe count, 20 sheets laid on imitation vomit",[1]; Day 7 at 25° C.,<10
same,"Microbe count, 30 sheets laid on imitation vomit",[1]; Day 7 at 25° C.,<10
same,"Microbe count, 1 sheet laid on imitation vomit",[2]; Day 0 at 25° C.,<10
same,"Microbe count, 2 sheets laid on imitation vomit",[2]; Day 0 at 25° C.,<10
same,"Microbe count, 3 sheets laid on imitation vomit",[2]; Day 0 at 25° C.,<10
same,"Microbe count, 4 sheets laid on imitation vomit",[2]; Day 0 at 25° C.,<10
same,"Microbe count, 5 sheets laid on imitation vomit",[2]; Day 0 at 25° C.,<10
same,"Microbe count, 6 sheets laid on imitation vomit",[2]; Day 0 at 25° C.,<10
same,"Microbe count, 8 sheets laid on imitation vomit",[2]; Day 0 at 25° C.,<10
same,"Microbe count, 10 sheets laid on imitation vomit",[2]; Day 0 at 25° C.,<10
same,"Microbe count, 20 sheets laid on imitation vomit",[2]; Day 0 at 25° C.,<10
same,"Microbe count, 30 sheets laid on imitation vomit",[2]; Day 0 at 25° C.,<10
same,"Microbe count, 1 sheet laid on imitation vomit",[2]; Day 7 at 25° C.,>10^6
same,"Microbe count, 2 sheets laid on imitation vomit",[2]; Day 7 at 25° C.,>10^6
same,"Microbe count, 3 sheets laid on imitation vomit",[2]; Day 7 at 25° C.,>10^6
same,"Microbe count, 4 sheets laid on imitation vomit",[2]; Day 7 at 25° C.,>10^6
same,"Microbe count, 5 sheets laid on imitation vomit",[2]; Day 7 at 25° C.,>10^6
same,"Microbe count, 6 sheets laid on imitation vomit",[2]; Day 7 at 25° C.,>10^6
same,"Microbe count, 8 sheets laid on imitation vomit",[2]; Day 7 at 25° C.,>10^6
same,"Microbe count, 10 sheets laid on imitation vomit",[2]; Day 7 at 25° C.,>10^6
same,"Microbe count, 20 sheets laid on imitation vomit",[2]; Day 7 at 25° C.,>10^6
same,"Microbe count, 30 sheets laid on imitation vomit",[2]; Day 7 at 25° C.,>10^6
same,"Microbe count, 1 sheet laid on imitation vomit",[3]; Day 0 at 25° C.,<10
same,"Microbe count, 2 sheets laid on imitation vomit",[3]; Day 0 at 25° C.,<10
same,"Microbe count, 3 sheets laid on imitation vomit",[3]; Day 0 at 25° C.,<10
same,"Microbe count, 4 sheets laid on imitation vomit",[3]; Day 0 at 25° C.,<10
same,"Microbe count, 5 sheets laid on imitation vomit",[3]; Day 0 at 25° C.,<10
same,"Microbe count, 6 sheets laid on imitation vomit",[3]; Day 0 at 25° C.,<10
same,"Microbe count, 8 sheets laid on imitation vomit",[3]; Day 0 at 25° C.,<10
same,"Microbe count, 10 sheets laid on imitation vomit",[3]; Day 0 at 25° C.,<10
same,"Microbe count, 20 sheets laid on imitation vomit",[3]; Day 0 at 25° C.,<10
same,"Microbe count, 30 sheets laid on imitation vomit",[3]; Day 0 at 25° C.,<10
same,"Microbe count, 1 sheet laid on imitation vomit",[3]; Day 7 at 25° C.,>10^6
same,"Microbe count, 2 sheets laid on imitation vomit",[3]; Day 7 at 25° C.,>10^6
same,"Microbe count, 3 sheets laid on imitation vomit",[3]; Day 7 at 25° C.,>10^6
same,"Microbe count, 4 sheets laid on imitation vomit",[3]; Day 7 at 25° C.,>10^6
same,"Microbe count, 5 sheets laid on imitation vomit",[3]; Day 7 at 25° C.,>10^6
same,"Microbe count, 6 sheets laid on imitation vomit",[3]; Day 7 at 25° C.,>10^6
same,"Microbe count, 8 sheets laid on imitation vomit",[3]; Day 7 at 25° C.,>10^6
same,"Microbe count, 10 sheets laid on imitation vomit",[3]; Day 7 at 25° C.,>10^6
same,"Microbe count, 20 sheets laid on imitation vomit",[3]; Day 7 at 25° C.,>10^6
same,"Microbe count, 30 sheets laid on imitation vomit",[3]; Day 7 at 25° C.,>10^6
same,"residual concentration of ammonium, after correction (Control = 100)",[4]; 0 h after spraying,9
same,"residual concentration of ammonium, before correction",[4]; 0 h after spraying,30 ppm
same,"residual concentration of ammonium, after correction (Control = 100)",[4]; 3 h after spraying,17
same,"residual concentration of ammonium, before correction",[4]; 3 h after spraying,50 ppm
same,"residual concentration of ammonium, after correction (Control = 100)",[4]; 6 h after spraying,21
same,"residual concentration of ammonium, before correction",[4]; 6 h after spraying,50 ppm
same,"residual concentration of ammonium, after correction (Control = 100)",[4]; 9 h after spraying,23
same,"residual concentration of ammonium, before correction",[4]; 9 h after spraying,40 ppm
same,"residual concentration of ammonium, after correction (Control = 100)",[4]; 24 h after spraying,28
same,"residual concentration of ammonium, before correction",[4]; 24 h after spraying,40 ppm
same,"residual concentration of ammonium, after correction (Control = 100)",[4]; before spraying,100
same,"residual concentration of ammonium, before correction",[4]; before spraying,320 ppm
